Measured values reported in US9296759B2, “Amino-oxazine and amino-dihydrothiazine compounds as beta-secretase modulators and methods of use” (AMGEN INC., priority 2011, dated 2016).
pIC50: −log10 of the molar value. Like-named read-outs stand apart in the source and are kept apart here.

Columns and labels:
[1] = system: Aβ40 in conditioned medium of cells stably expressing Amyloid Precursor Protein (APP); experiment: In vitro BACE cell-based assay (HEK cell assay, Aβ40 sandwich ELISA); settings: Homo sapiens, HEK293; average IC50, Aβ40, 24 h incubation
In short: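 Aβ40 in supernatants was measured by time-resolved fluorescence sandwich ELISA using pAb40 capture and biotinylated 6E10 detection, with antibody incubations at 4 °C. Stable APP cells were exposed to compounds for 24 h in a 10-point series (top dose 100 or 10 µM, 0.1% DMSO). IC50 was fitted from the concentration-response.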

Cathepsin D = Cathepsin D (Homo sapiens (Human), UniProt P07339); experiment: In vitro enzymatic Cat D (Cathepsin D) FRET assay; format: biochemical; settings: average IC50
In short: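 CHO-expressed recombinant enzyme in 0.05 M citrate pH 3.5, 5 mM CHAPS, 10% DMSO final; reaction started with 20 nM quenched-peptide FRET substrate (cleavage site spanned by fluorophore/quencher), 1 h incubation.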

Abeta 40 = experiment: In vivo inhibition of beta-secretase: Abeta 40 reduction in CSF and brain of the rat; settings: 10 mpk, after 4 hrs
Text: In Vivo Inhibition of Beta-Secretase
Several animal models, including mouse, rat, dog, and monkey, may be used to screen for inhibition of beta-secretase activity in vivo following administration of a test compound sample. Animals used in this invention can be wild type, transgenic, or gene knockout animals. For example, the Tg2576 mouse model, prepared and conducted as described in Hsiao et al., 1996, Science 274, 99-102, and other non-transgenic or gene knockout animals are useful to analyze in vivo inhibition of Amyloid beta peptide (Abeta) production in the presence of inhibitory test compounds. Generally, 2 to 18 month old Tg2576 mice, gene knockout mice or non-transgenic animals are administered test compounds formulated in vehicles, such as cyclodextran, phosphate buffers, hydroxypropyl methylcellulose or other suitable vehicles. One to twenty-four hours following the administration of compound, animals are sacrificed, and brains as well as cerebrospinal fluid (CSF) and plasma are removed for analysis of A-beta levels and drug or test compound concentrations (Dovey et al., 2001, Journal of Neurochemistry, 76, 173-181) Beginning at time 0, animals are administered by oral gavage, or other means of delivery such as intravenous injection, an inhibitory test compound of up to 100 mg/kg in a standard, conventional formulation, such as 2% hydroxypropyl methylcellulose, 1% Tween80. A separate group of animals receive 2% hydroxypropyl methylcellulose, 1% Tween80 alone, containing no test compound, and serve as a vehicle-control group. At the end of the test period, animals are sacrificed and brain tissues, plasma or cerebrospinal fluid are collected. Brains are either homogenized in 10 volumes (w/v) of 0.2% diethylamine (DEA) in 50 mM NaCl (Best et al., 2005, Journal of Pharmacology and Experimental Therapeutics, 313, 902-908), or in 10 volumes of 0.5% TritonX-100 in Tris-buffered saline (pH at about 7.6). Homogenates are centrifuged at 355,000 g, 4° C. for 30 minutes. CSF or brain supernatants are then analyzed for the presence of A-beta peptide by specific sandwich ELISA assays based on ECL (Electrochemiluminescence) technology. For example, rat Abeta40 is measured using biotinylated-4G8 (Signet) as a capture antibody and Fab40 (an in-house antibody specific to the C-terminal of Abeta40) as a detection antibody. For example, 4 hours after administration of 30 mg/kg oral dose of the test compound in 2% hydroxypropyl methylcellulose, 1% Tween80 (pH2.2) to 200 g male Sprague Dawley rats, amyloid beta peptide levels are measured for reduction by X % and Y % in cerebrospinal fluid and brain, respectively, when compared to the levels measured in the vehicle-treated rats.
• Oral: 2% HPMC, 1% Tween80, pH 2.2 • IV: 5% EtOH, 45% Propylene glycol in 5% Dextrose
The compounds of the invention may be shown to reduce the formation and/or deposition of amyloid beta peptide in the cerebrospinal fluid (CSF) as well as in the brain of a mouse or rat at either 3 mpk, 10 mpk or 30 mpk (mpk=mg compound per kg weight of the animal) dosing concentrations after 4 hrs.

[2] = target: BACE 1 (beta secretase enzyme) (Homo sapiens (Human), UniProt P56817); experiment: In vitro enzymatic BACE FRET assay; format: biochemical; settings: average IC50
In short: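 The enzyme was tested in 0.05 M acetate, pH 4.2, with 10% DMSO final and 100 uM genapol. The reaction was started with 50 nM quenched FRET peptide substrate, incubated one hour and stopped with Tris to neutral pH. Cleavage was read as fluorescence ([…]).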

[3] = Abeta 40, rat CSF, read-out: % reduction of rat CSF levels at 10 pmk
[4] = Abeta 40, rat brain, read-out: % reduction of rat brain levels at 10 mpk

Cathepsin D, sequence (P07339 65-412, species assumed): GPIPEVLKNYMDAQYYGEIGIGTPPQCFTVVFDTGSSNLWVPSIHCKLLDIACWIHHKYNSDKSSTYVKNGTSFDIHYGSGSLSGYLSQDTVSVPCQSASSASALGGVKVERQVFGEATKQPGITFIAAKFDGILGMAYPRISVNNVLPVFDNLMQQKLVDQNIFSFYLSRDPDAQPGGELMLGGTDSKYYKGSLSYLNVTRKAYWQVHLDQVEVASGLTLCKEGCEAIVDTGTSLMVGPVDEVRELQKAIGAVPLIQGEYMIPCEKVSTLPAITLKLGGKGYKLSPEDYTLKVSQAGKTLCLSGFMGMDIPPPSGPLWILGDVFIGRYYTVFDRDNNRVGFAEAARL
BACE 1 (beta secretase enzyme), sequence (P56817 46-501): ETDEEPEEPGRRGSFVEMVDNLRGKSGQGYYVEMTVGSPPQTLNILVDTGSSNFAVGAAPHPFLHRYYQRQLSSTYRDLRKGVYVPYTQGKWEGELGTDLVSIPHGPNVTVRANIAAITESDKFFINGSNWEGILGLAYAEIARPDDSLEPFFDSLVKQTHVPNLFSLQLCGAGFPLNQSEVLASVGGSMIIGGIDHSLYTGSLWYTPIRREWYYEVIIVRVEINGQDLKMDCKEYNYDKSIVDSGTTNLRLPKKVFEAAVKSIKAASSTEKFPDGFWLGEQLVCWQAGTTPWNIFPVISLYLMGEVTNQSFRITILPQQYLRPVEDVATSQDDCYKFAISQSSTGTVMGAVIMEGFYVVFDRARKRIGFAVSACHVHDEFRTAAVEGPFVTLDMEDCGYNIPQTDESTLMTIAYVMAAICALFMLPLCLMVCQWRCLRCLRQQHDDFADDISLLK

NC1=N[C@@]2(CCO1)c1cc(NC(=O)c3ccc(Cl)cn3)ccc1Oc1ncc(Br)cc12 [Example 34, N-((5S)-2′-amino-3-bromo-5′,6′-dihydrospiro[chromeno[2,3-b]pyridine-5,4′-[1,3]oxazin]-7-yl)-5-chloro-2-pyridinecarboxamide]
pIC50 [1]: 8.15 | pIC50 (Cathepsin D): 3.61 | inhibition in vivo at 10 mg/kg (Abeta 40; [3]): 64% | inhibition in vivo at 10 mg/kg (Abeta 40; [4]): 17% | pIC50 [2]: 7.87

NC1=N[C@@]2(CCO1)c1cc(NC(=O)c3ccc(Cl)cn3)ccc1Oc1c2cc(C2=CCCOC2)nc1F [Example 39, N-((5S)-2′-amino-3-(5,6-dihydro-2H-pyran-3-yl)-1-fluoro-5′,6′-dihydrospiro[chromeno[2,3-c]pyridine-5,4′-[1,3]oxazin]-7-yl)-5-chloro-2-pyridinecarboxamide]
pIC50 [1]: 9.30 | pIC50 (Cathepsin D): < 3.40 | inhibition in vivo at 10 mg/kg (Abeta 40; [3]): 85% | inhibition in vivo at 10 mg/kg (Abeta 40; [4]): 80% | pIC50 [2]: 8.70

NC1=N[C@@]2(CCO1)c1cc(NC(=O)c3ccc(Cl)cn3)ccc1Oc1c2cc(C2CC2)nc1F [Example 40, N-((5S)-2′-amino-3-cyclopropyl-1-fluoro-5′,6′-dihydrospiro[chromeno[2,3-c]pyridine-5,4′-[1,3]oxazin]-7-yl)-5-chloro-2-pyridinecarboxamide]
pIC50 [1]: 8.47 | inhibition in vivo at 10 mg/kg (Abeta 40; [3]): 75% | inhibition in vivo at 10 mg/kg (Abeta 40; [4]): 58% | pIC50 [2]: 8.62

NC1=N[C@@]2(CCO1)c1cc(NC(=O)c3ccc(Cl)cn3)ccc1Oc1ncc(C3=CCOCC3)cc12 [Example 45, N-((5S)-2′-amino-3-(3,6-dihydro-2H-pyran-4-yl)-5′,6′-dihydrospiro[chromeno[2,3-b]pyridine-5,4′-[1,3]oxazin]-7-yl)-5-chloro-2-pyridinecarboxamide]
pIC50 [1]: 9.22 | pIC50 (Cathepsin D): 3.47 | inhibition in vivo at 10 mg/kg (Abeta 40; [3]): 27% | inhibition in vivo at 10 mg/kg (Abeta 40; [4]): 14%

COc1cnc(C(=O)Nc2ccc3c(c2)[C@@]2(CCOC(N)=N2)c2cc(C4=CCCOC4)nc(F)c2O3)cn1 [Example 51, N-((5S)-2′-amino-3-(5,6-dihydro-2H-pyran-3-yl)-1-fluoro-5′,6′-dihydrospiro[chromeno[2,3-c]pyridine-5,4′-[1,3]oxazin]-7-yl)-5-methoxy-2-pyrazinecarboxamide]
pIC50 [1]: 8.38 | pIC50 (Cathepsin D): < 3.40 | inhibition in vivo at 10 mg/kg (Abeta 40; [3]): 85% | inhibition in vivo at 10 mg/kg (Abeta 40; [4]): 76% | pIC50 [2]: 8.57

COc1cnc(C(=O)Nc2ccc3c(c2)[C@@]2(CCOC(N)=N2)c2cc(C4CC4)nc(F)c2O3)cn1 [Example 54, N-((5S)-2′-amino-3-cyclopropyl-1-fluoro-5′,6′-dihydrospiro[chromeno[2,3-c]pyridine-5,4′-[1,3]oxazin]-7-yl)-5-methoxy-2-pyrazinecarboxamide]
pIC50 [1]: 8.02 | pIC50 (Cathepsin D): 3.57 | inhibition in vivo at 10 mg/kg (Abeta 40; [3]): 77% | inhibition in vivo at 10 mg/kg (Abeta 40; [4]): 65% | pIC50 [2]: 8.30

COc1cnc(C(=O)Nc2ccc3c(c2)[C@@]2(CCOC(N)=N2)c2cc(C4=CCCOC4)ncc2O3)cn1 [Example 58, N-((5S)-2′-amino-3-(5,6-dihydro-2H-pyran-3-yl)-5′,6′-dihydrospiro[chromeno[2,3-c]pyridine-5,4′-[1,3]oxazin]-7-yl)-5-methoxy-2-pyrazinecarboxamide]
pIC50 [1]: 8.96 | inhibition in vivo at 10 mg/kg (Abeta 40; [3]): 55% | inhibition in vivo at 10 mg/kg (Abeta 40; [4]): 36% | pIC50 [2]: 8.03

CC(C)(C)C#Cc1cc2c(cn1)Oc1ccc(NC(=O)c3ccc(Cl)cn3)cc1[C@@]21CCOC(N)=N1 [Example 82, N-((5S)-2′-amino-3-(3,3-dimethyl-1-butyn-1-yl)-5′,6′-dihydrospiro[chromeno[2,3-c]pyridine-5,4′-[1,3]oxazin]-7-yl)-5-chloro-2-pyridinecarboxamide]
pIC50 [1]: 8.72 | inhibition in vivo at 10 mg/kg (Abeta 40; [3]): 67% | inhibition in vivo at 10 mg/kg (Abeta 40; [4]): 42% | pIC50 [2]: 8.00

COc1cnc(C(=O)Nc2ccc3c(c2)[C@@]2(CCOC(N)=N2)c2cc(-c4ccnc(F)c4)cc(F)c2O3)cn1 [Example 95, N-((4S)-2-amino-5′-fluoro-7′-(2-fluoro-4-pyridinyl)-5,6-dihydrospiro[1,3-oxazine-4,9′-xanthen]-2′-yl)-5-methoxy-2-pyrazinecarboxamide]
pIC50 [1]: 8.25 | inhibition in vivo at 10 mg/kg (Abeta 40; [3]): 54% | inhibition in vivo at 10 mg/kg (Abeta 40; [4]): 21% | pIC50 [2]: 8.19

NC1=N[C@@]2(CCO1)c1cc(NC(=O)c3ccc(F)cn3)ccc1Oc1c2cc(-c2ccnc(F)c2)nc1F [Example 97, N-((5S)-2′-amino-1-fluoro-3-(2-fluoro-4-pyridinyl)-5′,6′-dihydrospiro[chromeno[2,3-c]pyridine-5,4′-[1,3]oxazin]-7-yl)-5-fluoro-2-pyridinecarboxamide]
pIC50 [1]: 8.96 | inhibition in vivo at 10 mg/kg (Abeta 40; [3]): 63% | inhibition in vivo at 10 mg/kg (Abeta 40; [4]): 44% | pIC50 [2]: 8.92

COc1cnc(C(=O)Nc2ccc3c(c2)[C@@]2(CCOC(N)=N2)c2cc(C4=CCCOC4)cc(F)c2O3)cn1 [Example 106, N-((4S)-2-amino-7′-(5,6-dihydro-2H-pyran-3-yl)-5′-fluoro-5,6-dihydrospiro[1,3-oxazine-4,9′-xanthen]-2′-yl)-5-methoxy-2-pyrazinecarboxamide]
pIC50 [1]: 8.80 | pIC50 (Cathepsin D): 3.97 | inhibition in vivo at 10 mg/kg (Abeta 40; [3]): 43% | inhibition in vivo at 10 mg/kg (Abeta 40; [4]): 16%

NC1=N[C@@]2(CCS1)c1cc(NC(=O)c3ccc(F)cn3)ccc1Oc1c2cc(C2=CCOCC2)nc1F [Example 116, N-((5S)-2′-amino-3-(3,6-dihydro-2H-pyran-4-yl)-1-fluoro-5′,6′-dihydrospiro[chromeno[2,3-c]pyridine-5,4′-[1,3]thiazin]-7-yl)-5-fluoro-2-pyridinecarboxamide]
pIC50 [1]: 9.22 | inhibition in vivo at 10 mg/kg (Abeta 40; [3]): 73% | inhibition in vivo at 10 mg/kg (Abeta 40; [4]): 56% | pIC50 [2]: 9.00

NC1=N[C@@]2(CCS1)c1cc(NC(=O)c3ccc(Cl)cn3)ccc1Oc1c2cc(C2=CCOCC2)nc1F [Example 117, N-((5S)-2′-amino-3-(3,6-dihydro-2H-pyran-4-yl)-1-fluoro-5′,6′-dihydrospiro[chromeno[2,3-c]pyridine-5,4′-[1,3]thiazin]-7-yl)-5-chloro-2-pyridinecarboxamide]
pIC50 [1]: 9.22 | pIC50 (Cathepsin D): 3.88 | inhibition in vivo at 10 mg/kg (Abeta 40; [3]): 80% | inhibition in vivo at 10 mg/kg (Abeta 40; [4]): 70%

COc1cnc(C(=O)Nc2ccc3c(c2)[C@@]2(CCSC(N)=N2)c2cc(C4=CCOCC4)nc(F)c2O3)c(C)c1 [Example 121, N-((5S)-2′-amino-3-(3,6-dihydro-2H-pyran-4-yl)-1-fluoro-5′,6′-dihydrospiro[chromeno[2,3-c]pyridine-5,4′-[1,3]thiazin]-7-yl)-5-methoxy-3-methyl-2-pyridinecarboxamide]
pIC50 [1]: 8.74 | pIC50 (Cathepsin D): 3.80 | pIC50 [2]: 8.27

Cc1cc(Cl)cnc1C(=O)Nc1ccc2c(c1)[C@@]1(CCSC(N)=N1)c1cc(C3=CCOCC3)nc(F)c1O2 [Example 122, N-((5S)-2′-amino-3-(3,6-dihydro-2H-pyran-4-yl)-1-fluoro-5′,6′-dihydrospiro[chromeno[2,3-c]pyridine-5,4′-[1,3]thiazin]-7-yl)-5-chloro-3-methyl-2-pyridinecarboxamide]
pIC50 [1]: 9.10 | pIC50 (Cathepsin D): 3.88 | pIC50 [2]: 8.54
